Experimental findings from patent US20250177396A1, “POLO-LIKE KINASE 4 (PLK4) INHIBITORS, PHARMACEUTICAL COMPOSITIONS, METHODS OF PREPARATION AND USES THEREOF” (Repare Therapeutics Inc., priority 2022, published 2025) are described below.

The structures appear in SMILES notation. pIC50: −log10 of the molar value.

The assay addresses T1, PLK4 (Homo sapiens, UniProt O00444).
T1 construct: expressed in transfected cells; host or cells: HEK293 T cells (ATCC CRL-3216)
T1 sequence (O00444 1-970): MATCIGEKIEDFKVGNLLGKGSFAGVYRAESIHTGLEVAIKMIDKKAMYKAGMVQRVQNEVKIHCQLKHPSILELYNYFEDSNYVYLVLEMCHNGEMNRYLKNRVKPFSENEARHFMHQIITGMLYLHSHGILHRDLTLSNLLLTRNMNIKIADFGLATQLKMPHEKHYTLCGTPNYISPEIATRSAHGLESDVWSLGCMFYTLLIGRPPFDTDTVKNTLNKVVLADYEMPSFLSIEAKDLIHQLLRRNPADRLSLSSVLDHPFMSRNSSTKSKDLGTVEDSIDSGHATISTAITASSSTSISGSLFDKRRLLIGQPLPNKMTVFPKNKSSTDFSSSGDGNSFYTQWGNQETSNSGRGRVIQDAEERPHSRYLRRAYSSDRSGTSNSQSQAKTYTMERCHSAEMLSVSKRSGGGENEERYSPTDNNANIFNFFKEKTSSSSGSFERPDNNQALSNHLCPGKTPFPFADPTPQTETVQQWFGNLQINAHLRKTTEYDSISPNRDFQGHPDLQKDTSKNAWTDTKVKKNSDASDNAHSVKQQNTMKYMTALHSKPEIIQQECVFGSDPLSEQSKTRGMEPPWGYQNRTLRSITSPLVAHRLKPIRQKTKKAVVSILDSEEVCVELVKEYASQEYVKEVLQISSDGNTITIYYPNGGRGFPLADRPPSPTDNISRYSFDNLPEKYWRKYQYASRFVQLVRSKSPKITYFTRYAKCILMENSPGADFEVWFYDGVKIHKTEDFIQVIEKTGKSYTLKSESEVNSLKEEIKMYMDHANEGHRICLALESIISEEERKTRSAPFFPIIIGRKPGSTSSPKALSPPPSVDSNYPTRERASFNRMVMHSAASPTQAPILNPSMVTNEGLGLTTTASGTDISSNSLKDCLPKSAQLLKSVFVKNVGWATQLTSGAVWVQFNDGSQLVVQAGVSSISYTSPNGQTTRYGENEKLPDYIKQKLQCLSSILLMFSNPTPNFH
Nature of the assay: PLK4 NanoBRET target engagement assay. The class given is binding. As to conditions: HEK293 T cells transfected with PLK4 NanoLuc fusion vector; K-5 tracer; 2 hrs incubation. The gist of the method: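 HEK293T cells transiently expressing PLK4-NanoLuc, plated at 17000 cells/well with K-5 tracer and compound, incubated 2 h at 37 °C/5% CO2. After substrate/inhibitor mix, 610/450 nm emission ratio ×1000 gave mBRET; IC50 from 4-parameter fit.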
For the molecule `COc1c(-c2nc(N(C)c3c(F)cc(S(C)(=O)=O)cc3F)nc(Nc3cc(C)[nH]n3)c2C2CC2)cnn1C` [Compound 154], the pIC50 is 8.00.
As for `COc1c(Nc2cc(C)[nH]n2)nc(N(C)c2ccc(S(C)(=O)=O)cc2F)c(F)c1-c1cnn(C)c1` [Compound 24, 3-fluoro-N^2-(2-fluoro-4-(methylsulfonyl)phenyl)-5-methoxy-N^2-methyl-N^6-(5-methyl-1H-pyrazol-3-yl)-4-(1-methyl-1H-pyrazol-4-yl)pyridine-2,6-diamine], the pIC50 is 5.96.
On to `COc1c(Nc2cc(C)[nH]n2)nc(N(C)c2ccc(C(C)(C)C#N)cc2)nc1-c1cnn(C)c1` [Compound 61], for which the pIC50 was 7.00.
Consider `Cc1cc(Nc2nc(N(C)c3cc(F)c(S(C)(=O)=O)cc3F)nc(-c3cnn(C)c3C(N)=O)c2C2CC2)n[nH]1` [Compound 248], for which the pIC50 is 7.48.
For `Cc1cc(Nc2nc(N(C)c3c(F)cc(C#N)cc3F)nc(-c3cn(C)cn3)c2C2CC2)n[nH]1` [Compound 339], the pIC50 was 7.62.
`Cc1cc(Nc2nc(N(C)c3c(F)cc(S(C)(=O)=O)cc3F)nc(-c3cnn(C4CC4)c3)c2C2CC2)n[nH]1` [Compound 126] showed a pIC50 of 8.30.
`CN(c1nc(Nc2cc(C3CC3)[nH]n2)c(C2CC2)c(-c2cn(C)cn2)n1)c1c(F)cc(S(C)(=O)=O)cc1F` [Compound 228, 5-cyclopropyl-N^4-(5-cyclopropyl-1H-pyrazol-3-yl)-N^2-(2,6-difluoro-4-(methylsulfonyl)phenyl)-N^2-methyl-6-(1-methyl-1H-imidazol-4-yl)pyrimidine-2,4-diamine] gave a pIC50 of 8.52.
Regarding `Cc1cc(Nc2nc(N(C)c3c(F)cc(S(C)(=O)=O)cc3F)nc(-c3cnn(CF)c3)c2C2CC2)n[nH]1` [Compound 127], the pIC50 was 8.22.
The molecule `COc1c(Nc2cc(C)[nH]n2)nc(N(C)c2cc3c(cc2F)OCO3)nc1-c1cnn(C)c1` [Compound 65] showed a pIC50 of 6.09.
Regarding `Cc1cc(Nc2nc(N(C)c3c(F)cc(S(C)(=O)=O)cc3F)nc(-c3cn(C)c(C)n3)c2C2CC2)n[nH]1` [Compound 124], the pIC50 was 8.70.
For `Cc1cc(Nc2nc(N(C)c3c(F)cc(S(C)(=O)=O)cc3F)nc(-c3cn(CCO)nc3C)c2C2CC2)n[nH]1` [Compound 202], the pIC50 is 8.22.
For the molecule `COc1c(Nc2cc(C)[nH]n2)nc(N(C)c2ccc(S(=O)(=O)C(C)C)cc2)nc1-c1cnn(C)c1` [Compound 87], the pIC50 was 6.80.
As for `Cc1cc(Nc2nc(N(C)c3c(F)cc(S(C)(=O)=O)cc3F)nc(C3CC3)c2C2CC2)n[nH]1` [Compound 138], the pIC50 was 6.80.
The value for `Cc1cc(Nc2nc(N(C)c3c(F)cc(S(C)(=O)=O)cc3F)nc(-c3cn[nH]c3C(C)C)c2C2CC2)n[nH]1` [Compound 352] was 8.52.
`Cc1cc(Nc2nc(N(C)c3c(F)cc(S(C)(=O)=O)cc3F)nc(-c3cn[nH]c3C#N)c2C2CC2)n[nH]1` [Compound 317] showed a pIC50 of 7.57.
`COc1c(Nc2cc(C)[nH]n2)nc(N(C)c2ccc(S(C)(=O)=O)cc2F)nc1-c1ccn(C)n1` [Compound 6, N^2-(2-fluoro-4-(methylsulfonyl)phenyl)-5-methoxy-N^2-methyl-6-(1-methyl-1H-pyrazol-3-yl)-N^4-(5-methyl-1H-pyrazol-3-yl)pyrimidine-2,4-diamine] gave a pIC50 of 7.31.
Regarding `COc1c(Nc2cc(C)[nH]n2)nc(N(Cc2ccc(F)cc2)c2ccc(S(C)(=O)=O)cc2F)nc1-c1cnn(C)c1` [Compound 4, N^2-(2-fluoro-4-(methylsulfonyl)phenyl)-N^2-(4-fluorobenzyl)-5-methoxy-N^4-(5-methyl-1H-pyrazol-3-yl)-6-(1-methyl-1H-pyrazol-4-yl)pyrimidine-2,4-diamine], the pIC50 was 6.14.
`COCc1cc(-c2nc(N(C)c3c(F)cc(S(C)(=O)=O)cc3F)nc(Nc3cc(C)[nH]n3)c2C2CC2)nn1C` [Compound 166]: the pIC50 is 8.40.
`COc1c(Nc2cc(C)[nH]n2)nc(N(C)c2ccc(Oc3nccs3)cc2)nc1-c1cnn(C)c1` [Compound 69]: the pIC50 is 6.15.
For the molecule `Cc1cc(Nc2nc(N(C)c3c(F)cc(S(C)(=O)=O)cc3F)nc(-c3cnn(C)c3C(=O)N3CCC3)c2C2CC2)n[nH]1` [Compound 263], the pIC50 was 8.05.
`Cc1cc(Nc2nc(N(C)c3c(F)cc(S(C)(=O)=O)cc3F)nc(-c3ccn(C(F)F)n3)c2C2CC2)n[nH]1` [Compound 155] had a pIC50 of 8.00.
For the molecule `Cc1cc(Nc2nc(N(C)c3c(F)cc(S(C)(=O)=O)cc3F)nc(-c3cnn(C)c3N(C)C)c2C2CC2)n[nH]1` [Compound 320], the pIC50 was 8.40.
The value for `Cc1cc(Nc2nc(N(C)c3c(F)cc(S(C)(=O)=O)cc3F)nc(-c3c[nH]cn3)c2C2CC2)n[nH]1` [Compound 103] was 8.05; that for `COc1c(Nc2cc(C)[nH]n2)nc(N(C)c2ccc(S(C)(=O)=O)cc2F)c(C)c1-c1cnn(C)c1` [Compound 99] was 5.32.
Molecule `Cc1cc(Nc2nc(N(C)c3ccc(S(C)(=O)=O)cc3F)nc(-c3ccn(C)n3)c2C(C)C)n[nH]1` [Compound 60] had a pIC50 of under 5.30.
For the molecule `Cc1cc(Nc2nc(N(C)c3cc(F)c(S(C)(=O)=O)cc3F)nc(-c3cn(C)nc3C)c2C2CC2)n[nH]1` [Compound 159], the pIC50 is 8.15.
For `Cc1cc(Nc2nc(N(C)c3c(F)cc(S(C)(=O)=O)cc3F)nc(-c3cn(C4CC4)cn3)c2C2CC2)n[nH]1` [Compound 148], the pIC50 is 8.40.
With `COC1CCc2ncc(-c3nc(N(C)c4c(F)cc(S(C)(=O)=O)cc4F)nc(Nc4cc(C)[nH]n4)c3C3CC3)n2C1` (centres unmarked) [Compound 255], the pIC50 was 8.70.
With `COc1c(Nc2cc(C)[nH]n2)nc(N(C)c2ccc(S(=O)(=O)C(C)(C)C)cc2F)nc1-c1cnn(C)c1` [Compound 76], the pIC50 is 7.34.
Regarding `Cc1cc(Nc2nc(N(C)c3c(F)cc(S(C)(=O)=O)cc3F)nc(-c3cccnn3)c2C2CC2)n[nH]1` [Compound 146], the pIC50 was 7.68.
On to `COc1c(Nc2cc(C)[nH]n2)nc(N(C)c2ccc(S(C)(=O)=O)cc2)nc1-c1cnn(C)c1` [Compound 83], for which the pIC50 is 6.72.
With `Cc1cc(Nc2nc(N(C)c3c(F)cc(S(C)(=O)=O)cc3F)nc(N3CCO[C@@H](C(F)(F)F)C3)c2C2CC2)n[nH]1` [Compound 300], the pIC50 is 6.82.
`Cc1cc(Nc2nc(N(C)c3c(F)cc(S(C)(=O)=O)cc3F)nc(-c3cnc4cccnn34)c2C2CC2)n[nH]1` [Compound 267] had a pIC50 of 8.22.
Molecule `Cc1cc(Nc2nc(N(C)c3c(F)cc(S(C)(=O)=O)cc3F)nc(-c3c[nH]nc3C)c2C2CC2)n[nH]1` [Compound 122] showed a pIC50 of 8.10.
Consider `COc1c(Nc2cc(C)[nH]n2)nc(N(C(C)=O)c2ccc(S(C)(=O)=O)cc2F)nc1-c1cnn(C)c1` [Compound 41], for which the pIC50 was 6.17.
The result for `COc1c(Nc2cc(C)[nH]n2)nc(N2CCc3cc(S(C)(=O)=O)ccc32)nc1-c1cnn(C)c1` [Compound 5, 5-methoxy-N-(5-methyl-1H-pyrazol-3-yl)-6-(1-methyl-1H-pyrazol-4-yl)-2-(5-(methylsulfonyl)indolin-1-yl)pyrimidin-4-amine] reads 5.96; that for `Cc1cc(Nc2nc(N(C)c3ccc(S(C)(=O)=O)cc3F)cc(-c3cnn(C)c3)c2C2CC2)n[nH]1` [Compound 93], 7.11.
As for `Cc1cc(Nc2nc(N(C)c3c(F)cc(S(C)(=O)=O)cc3F)nc(-c3cn(C(F)F)nc3C)c2C2CC2)n[nH]1` [Compound 143], the pIC50 is 7.92.
